What was measured:
Type in all cases: functional
[1] = Evaluated for substrate specificity of betaine uptake in salt-stressed Sinorhizobium meliloti. compound to substrate ratio 10:1
[2] = Evaluated for substrate specificity of betaine uptake in salt-stressed Sinorhizobium meliloti. compound to substrate ratio 100:1
[3] = tested on: Sinorhizobium meliloti; test: Maximal attenuance reached in the stationary phase was reported against Sinorhizobium meliloti 102F34 in Lactate aspartate(LAS) minimal medium (without addition of NaCl)
[4] = tested on: Sinorhizobium meliloti; test: Tested for effect on doubling time of growth of Sinorhizobium meliloti 102F34 in Lactate aspartate(LAS) minimal medium (with addition of NaCl)
[5] = Evaluated for substrate specificity of betaine uptake in salt-stressed Sinorhizobium meliloti. compound to substrate ratio 1:1; set-up: unit not given here
[6] = tested on: Sinorhizobium meliloti; test: Tested for effect on doubling time of growth of Sinorhizobium meliloti 102F34 in Lactate aspartate(LAS) minimal medium (without addition of NaCl)
[7] = tested on: Sinorhizobium meliloti; test: Maximal attenuance reached in the stationary phase was reported against Sinorhizobium meliloti 102F34 in Lactate aspartate(LAS) minimal medium (with addition of NaCl)

## CC(C)[N+](C)(C)CC(=O)O.[Cl-]
[1]
  Betaine uptake (substrate specificity): 4
[2]
  Substrate specificity of betaine uptake: 45
[3]
  Dmax: 1.8
[4]
  DT: 20 h
[5]
  Ratio: 0
[6]
  DT: 6.9 h
[7]
  Dmax: 0.9

## C[S+](C)CC(=O)O.[Cl-]
[1]
  Betaine uptake (substrate specificity): 90
[2]
  Substrate specificity of betaine uptake: 98
[3]
  Dmax: 0.5
[4]
  DT: 32 h
[5]
  Ratio: 52
[6]
  DT: 35 h
[7]
  Dmax: 0.5

## C[N+]1(CC(=O)O)CCOCC1.[Cl-]
[1]
  Betaine uptake (substrate specificity): 7
[2]
  Substrate specificity of betaine uptake: 43
[3]
  Dmax: 1
[4]
  DT: 13 h
[5]
  Ratio: 1
[6]
  DT: 28 h
[7]
  Dmax: 1.9

## C[N+](C)(C)CC(=O)O [BETAINE]
[1]
  Betaine uptake (substrate specificity): 94
[2]
  Substrate specificity of betaine uptake: 99
[3]
  Dmax: 2
[4]
  DT: 7 h
[5]
  Ratio: 80
[6]
  DT: 5.5 h
[7]
  Dmax: 2.1

## CC[N+](C)(C)CC(=O)O.[Cl-]
[1]
  Betaine uptake (substrate specificity): 79
[2]
  Substrate specificity of betaine uptake: 96
[3]
  Dmax: 0.7
[4]
  DT: 11 h
[5]
  Ratio: 35
[6]
  DT: 35 h
[7]
  Dmax: 2

## CCCC[N+](C)(C)CC(=O)O.[Cl-]
[1]
  Betaine uptake (substrate specificity): 10
[2]
  Substrate specificity of betaine uptake: 23
[3]
  Dmax: 1.9
[4]
  DT: 20 h
[5]
  Ratio: 1
[6]
  DT: 6.4 h
[7]
  Dmax: 0.9

## C[N+]1(CC(=O)O)CCCC1.[Cl-]
[1]
  Betaine uptake (substrate specificity): 61
[2]
  Substrate specificity of betaine uptake: 95
[3]
  Dmax: 0.6
[4]
  DT: 11 h
[5]
  Ratio: 20
[6]
  DT: 45 h
[7]
  Dmax: 2.1

## CC[N+](CC)(CC)CC(=O)O.[Cl-]
[1]
  Betaine uptake (substrate specificity): 4
[2]
  Substrate specificity of betaine uptake: 27
[3]
  Dmax: 1.8
[4]
  DT: 18 h
[5]
  Ratio: 0
[6]
  DT: 7.9 h
[7]
  Dmax: 0.9

## CC[N+](C)(CC)CC(=O)O.[Cl-]
[1]
  Betaine uptake (substrate specificity): 10
[2]
  Substrate specificity of betaine uptake: 57
[3]
  Dmax: 1.6
[4]
  DT: 13 h
[5]
  Ratio: 4
[6]
  DT: 9 h
[7]
  Dmax: 2

Source: ChEMBL document CHEMBL1131697, “Toxicity and osmoprotective activities of analogues of glycine betaine obtained by solid phase organic synthesis towards Sinorhizobium meliloti” (1999)
